Source: patent publication US11572369B2, “Bicyclic pyridine compositions and methods of using the same for cancer therapy” (UNIVERSITY OF SOUTH CAROLINA, priority 2019, dated 2023)

Columns and labels:
Experiment in all cases: KINOMEscan
Format in all cases: binding
Details in all cases: 2000 nM
TIE2 = molecular target: T1, TIE2 (Homo sapiens, UniProt Q02763)
T1 construct: DNA label (qPCR read-out); purchased KINOMEscan (DiscoveRx) ScanMAX panel

MKNK2 = molecular target: T2, MKNK2 (Homo sapiens, UniProt Q9HBH9)
T2 construct: DNA label (qPCR read-out); purchased KINOMEscan scanMAX panel (DiscoveRx)
T2 sequence (Q9HBH9 whole entry): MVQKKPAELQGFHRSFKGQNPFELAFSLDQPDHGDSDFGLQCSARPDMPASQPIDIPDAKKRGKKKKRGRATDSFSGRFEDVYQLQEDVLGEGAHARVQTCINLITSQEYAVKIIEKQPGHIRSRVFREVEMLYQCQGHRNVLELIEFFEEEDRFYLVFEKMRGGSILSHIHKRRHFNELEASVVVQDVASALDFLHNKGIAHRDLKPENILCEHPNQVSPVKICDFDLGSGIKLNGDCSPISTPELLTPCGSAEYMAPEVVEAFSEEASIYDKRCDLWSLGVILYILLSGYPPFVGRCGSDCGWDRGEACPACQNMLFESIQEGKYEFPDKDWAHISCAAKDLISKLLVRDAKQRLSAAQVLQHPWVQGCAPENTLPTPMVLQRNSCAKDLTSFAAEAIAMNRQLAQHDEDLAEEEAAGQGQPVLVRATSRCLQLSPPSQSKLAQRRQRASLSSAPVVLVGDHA

p38-gamma = molecular target: T3, p38-gamma (Homo sapiens, UniProt P53778)
T3 construct: purchased DiscoverX (KINOMEscan service)
T3 sequence (P53778 whole entry): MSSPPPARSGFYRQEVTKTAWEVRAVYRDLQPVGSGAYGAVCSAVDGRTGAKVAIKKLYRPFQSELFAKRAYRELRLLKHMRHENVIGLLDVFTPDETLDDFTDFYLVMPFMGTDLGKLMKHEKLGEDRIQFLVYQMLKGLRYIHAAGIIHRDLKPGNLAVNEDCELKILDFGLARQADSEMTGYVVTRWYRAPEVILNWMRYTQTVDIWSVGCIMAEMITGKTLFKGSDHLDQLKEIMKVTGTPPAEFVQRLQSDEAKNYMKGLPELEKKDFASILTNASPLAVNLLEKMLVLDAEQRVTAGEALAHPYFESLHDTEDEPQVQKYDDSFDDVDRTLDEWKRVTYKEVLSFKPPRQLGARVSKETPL

ACVRL1 = molecular target: T4, ACVRL1 (Homo sapiens, UniProt P37023)
T4 construct: purchased DiscoveRx (KINOMEscan scanMAX panel, service)

NLK = molecular target: T5, NLK (Homo sapiens, UniProt Q9UBE8)
T5 construct: DNA label (qPCR read-out); purchased KINOMEscan (ScanMAX panel service)

AKT1 = molecular target: T6, AKT1 (Homo sapiens, UniProt P31749)
T6 construct: purchased DiscoveRx (KINOMEscan scanMAX panel, service)

DAPK2 = molecular target: T7, DAPK2 (Homo sapiens, UniProt Q9UIK4)
T7 construct: DNA label; purchased DiscoveRx (KINOMEscan scanMAX panel)
T7 sequence (Q9UIK4 whole entry): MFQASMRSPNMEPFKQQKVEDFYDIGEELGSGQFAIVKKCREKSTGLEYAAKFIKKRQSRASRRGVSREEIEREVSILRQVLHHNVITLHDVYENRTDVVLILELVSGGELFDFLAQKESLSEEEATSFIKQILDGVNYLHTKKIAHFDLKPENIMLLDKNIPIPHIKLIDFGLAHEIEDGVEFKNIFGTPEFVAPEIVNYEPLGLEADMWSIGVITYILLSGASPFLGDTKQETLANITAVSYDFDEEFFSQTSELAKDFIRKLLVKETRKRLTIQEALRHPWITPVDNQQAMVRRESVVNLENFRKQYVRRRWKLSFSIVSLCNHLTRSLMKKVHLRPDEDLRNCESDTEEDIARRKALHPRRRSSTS

ALK(L1196M) = molecular target: T8, ALK(L1196M) (Homo sapiens, UniProt Q9UM73, L1196M)
T8 construct: DNA label (qPCR read-out); purchased KINOMEscan scanMAX panel (DiscoveRx)

TRKB = molecular target: T9, TRKB (Homo sapiens, UniProt Q16620)
T9 construct: DNA label (qPCR read-out); purchased KINOMEscan (DiscoveRx) ScanMAX panel

GCN2(Kin.Dom.2, S808G) = molecular target: T10, GCN2(Kin.Dom.2, S808G) (Homo sapiens, UniProt Q9P2K8, S808G)
T10 construct: GCN2(Kin.Dom.2, S808G); purchased KINOMEscan (DiscoveRx)

ERK8 = molecular target: T11, ERK8 (Homo sapiens, UniProt Q8TD08)
T11 construct: DNA label (qPCR read-out); purchased DiscoveRx (KINOMEscan ScanMAX panel)

[1] = molecular target: T12, RSK4(Kin.Dom.1-N-terminal) (Homo sapiens, UniProt Q9UK32)
T12 construct: RSK4(Kin.Dom.1); purchased DiscoveRx (KINOMEscan scanMAX panel)

PLK3 = molecular target: T13, PLK3 (Homo sapiens, UniProt Q9H4B4)
T13 construct: purchased DiscoveRx (KINOMEscan scanMAX panel)

FLT3(N841I) = molecular target: T14, FLT3(N841I) (Homo sapiens, UniProt P36888, N841I)
T14 construct: purchased KINOMEscan (DiscoveRx)

CDK7 = molecular target: T15, CDK7 (Homo sapiens, UniProt P50613)
T15 construct: purchased DiscoverX (KINOMEscan service)

CAMK1 = molecular target: T16, CAMK1 (Homo sapiens, UniProt Q14012)
T16 construct: DNA label (qPCR read-out); purchased KINOMEscan (ScanMAX panel service)
T16 sequence (Q14012 whole entry): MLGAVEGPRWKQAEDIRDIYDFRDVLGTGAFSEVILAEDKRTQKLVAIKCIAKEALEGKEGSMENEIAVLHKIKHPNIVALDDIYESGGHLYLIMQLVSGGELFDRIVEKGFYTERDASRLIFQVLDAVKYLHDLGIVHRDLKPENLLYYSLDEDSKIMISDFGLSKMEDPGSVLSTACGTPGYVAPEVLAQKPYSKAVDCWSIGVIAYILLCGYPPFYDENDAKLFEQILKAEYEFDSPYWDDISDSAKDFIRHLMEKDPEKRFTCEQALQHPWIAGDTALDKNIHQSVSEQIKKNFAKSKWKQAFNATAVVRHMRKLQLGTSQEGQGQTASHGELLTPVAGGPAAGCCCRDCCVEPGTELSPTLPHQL

ZAP70 = ZAP70 (Homo sapiens, UniProt P43403)
CLK4 = molecular target: T17, CLK4 (Homo sapiens, UniProt Q9HAZ1)
T17 construct: DNA label (for qPCR read-out); purchased DiscoveRx (KINOMEscan scanMAX service)

KIT (D816H) = molecular target: T18, KIT (D816H) (Homo sapiens, UniProt P10721, D816H)
T18 construct: DNA label (for qPCR read-out); purchased DiscoveRx (KINOMEscan scanMAX panel)

MAPKAPK5 = MAPKAPK5 (Homo sapiens, UniProt Q8IW41)
SRC = molecular target: T19, SRC (Homo sapiens, UniProt P12931)
T19 construct: purchased KINOMEscan (DiscoveRx)

PCTK2 = molecular target: T20, PCTK2 (Homo sapiens, UniProt Q00537)
T20 construct: purchased DiscoverX (KINOMEscan service)

PDGFRA = molecular target: T21, PDGFRA (Homo sapiens, UniProt P16234)
T21 construct: DNA label (for qPCR read-out); purchased DiscoveRx (KINOMEscan scanMAX service)
T21 sequence (P16234 24-1089): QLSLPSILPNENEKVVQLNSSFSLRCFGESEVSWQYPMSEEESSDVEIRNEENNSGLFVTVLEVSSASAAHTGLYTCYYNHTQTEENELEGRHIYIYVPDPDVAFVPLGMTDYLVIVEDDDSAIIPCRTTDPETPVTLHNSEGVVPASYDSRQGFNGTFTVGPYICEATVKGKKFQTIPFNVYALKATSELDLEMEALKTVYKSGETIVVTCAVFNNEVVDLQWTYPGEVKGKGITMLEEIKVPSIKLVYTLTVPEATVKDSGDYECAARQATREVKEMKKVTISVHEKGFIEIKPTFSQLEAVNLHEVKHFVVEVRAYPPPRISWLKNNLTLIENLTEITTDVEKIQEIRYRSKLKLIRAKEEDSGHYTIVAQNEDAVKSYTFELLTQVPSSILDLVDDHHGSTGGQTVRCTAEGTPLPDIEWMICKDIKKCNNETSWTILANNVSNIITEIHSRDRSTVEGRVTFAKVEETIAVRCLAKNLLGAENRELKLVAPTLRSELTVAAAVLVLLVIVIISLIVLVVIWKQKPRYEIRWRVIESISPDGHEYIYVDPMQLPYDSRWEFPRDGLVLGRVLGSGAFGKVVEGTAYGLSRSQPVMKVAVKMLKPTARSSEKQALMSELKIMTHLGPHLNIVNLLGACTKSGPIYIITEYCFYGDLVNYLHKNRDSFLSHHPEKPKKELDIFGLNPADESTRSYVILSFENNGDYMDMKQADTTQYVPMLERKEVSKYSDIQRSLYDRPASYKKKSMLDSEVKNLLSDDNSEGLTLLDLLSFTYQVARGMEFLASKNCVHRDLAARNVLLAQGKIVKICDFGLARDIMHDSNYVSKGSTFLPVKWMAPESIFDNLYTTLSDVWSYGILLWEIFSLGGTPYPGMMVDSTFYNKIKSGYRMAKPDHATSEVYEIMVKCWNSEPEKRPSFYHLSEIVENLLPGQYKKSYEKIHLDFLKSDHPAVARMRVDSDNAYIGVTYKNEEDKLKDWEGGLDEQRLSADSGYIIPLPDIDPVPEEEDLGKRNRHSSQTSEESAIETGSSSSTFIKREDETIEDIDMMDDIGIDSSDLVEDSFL

LIMK2 = molecular target: T22, LIMK2 (Homo sapiens, UniProt P53671)
T22 construct: purchased KINOMEscan (DiscoveRx) panel service
T22 sequence (P53671 whole entry): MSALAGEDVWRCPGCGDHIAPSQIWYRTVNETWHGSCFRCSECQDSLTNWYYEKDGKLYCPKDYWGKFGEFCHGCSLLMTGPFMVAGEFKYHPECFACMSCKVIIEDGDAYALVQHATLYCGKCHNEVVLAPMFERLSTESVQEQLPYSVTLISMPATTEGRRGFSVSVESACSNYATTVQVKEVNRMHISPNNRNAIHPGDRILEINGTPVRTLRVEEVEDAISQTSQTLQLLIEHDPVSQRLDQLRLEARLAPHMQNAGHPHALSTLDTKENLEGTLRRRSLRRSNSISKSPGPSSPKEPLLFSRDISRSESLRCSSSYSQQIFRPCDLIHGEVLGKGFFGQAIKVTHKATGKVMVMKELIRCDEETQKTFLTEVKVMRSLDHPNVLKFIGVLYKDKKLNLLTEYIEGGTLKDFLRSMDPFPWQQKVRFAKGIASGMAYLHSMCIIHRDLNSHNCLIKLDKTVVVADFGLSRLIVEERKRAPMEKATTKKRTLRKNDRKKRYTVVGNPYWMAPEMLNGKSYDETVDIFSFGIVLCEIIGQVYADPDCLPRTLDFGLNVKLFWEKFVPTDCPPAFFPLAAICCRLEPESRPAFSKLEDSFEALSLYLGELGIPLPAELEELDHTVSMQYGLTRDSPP

MAST1 = molecular target: T23, MAST1 (Homo sapiens, UniProt Q9Y2H9)
T23 construct: purchased DiscoveRx (KINOMEscan scanMAX panel, service)

FGFR2 = molecular target: T24, FGFR2 (Homo sapiens, UniProt P21802)
T24 construct: purchased DiscoveRx (KINOMEscan scanMAX panel)

OSR1 = molecular target: T25, OSR1 (Homo sapiens, UniProt O95747)
T25 construct: purchased DiscoverX (KINOMEscan service)

PIK3C2G = molecular target: T26, PIK3C2G (Homo sapiens, UniProt O75747)
T26 construct: DNA label (for qPCR read-out); purchased DiscoveRx (KINOMEscan scanMAX service)

EPHA2 = molecular target: T27, EPHA2 (Homo sapiens, UniProt P29317)
T27 construct: purchased DiscoveRx (KINOMEscan scanMAX panel)

STK33 = molecular target: T28, STK33 (Homo sapiens, UniProt Q9BYT3)
T28 construct: DNA label (for qPCR read-out); purchased DiscoveRx (KINOMEscan scanMAX panel, contract assay)

KIT(L576P) = molecular target: T29, KIT(L576P) (Homo sapiens, UniProt P10721, L576P)
T29 construct: DNA label (for qPCR read-out); purchased DiscoveRx (KINOMEscan scanMAX panel)

SGK3 = molecular target: T30, SGK3 (Homo sapiens, UniProt Q96BR1)
T30 construct: purchased KINOMEscan (DiscoveRx)

STK35 = molecular target: T31, STK35 (Homo sapiens, UniProt Q8TDR2)
T31 construct: DNA label (for qPCR read-out); purchased DiscoveRx (KINOMEscan scanMAX panel, contract assay)

GRK1 = molecular target: T32, GRK1 (Homo sapiens, UniProt Q15835)
T32 construct: purchased KINOMEscan (DiscoveRx)

MRCKB = molecular target: T33, MRCKB (Homo sapiens, UniProt Q9Y5S2)
T33 construct: DNA label (qPCR read-out); purchased KINOMEscan scanMAX panel (DiscoveRx)
T33 sequence (Q9Y5S2 whole entry): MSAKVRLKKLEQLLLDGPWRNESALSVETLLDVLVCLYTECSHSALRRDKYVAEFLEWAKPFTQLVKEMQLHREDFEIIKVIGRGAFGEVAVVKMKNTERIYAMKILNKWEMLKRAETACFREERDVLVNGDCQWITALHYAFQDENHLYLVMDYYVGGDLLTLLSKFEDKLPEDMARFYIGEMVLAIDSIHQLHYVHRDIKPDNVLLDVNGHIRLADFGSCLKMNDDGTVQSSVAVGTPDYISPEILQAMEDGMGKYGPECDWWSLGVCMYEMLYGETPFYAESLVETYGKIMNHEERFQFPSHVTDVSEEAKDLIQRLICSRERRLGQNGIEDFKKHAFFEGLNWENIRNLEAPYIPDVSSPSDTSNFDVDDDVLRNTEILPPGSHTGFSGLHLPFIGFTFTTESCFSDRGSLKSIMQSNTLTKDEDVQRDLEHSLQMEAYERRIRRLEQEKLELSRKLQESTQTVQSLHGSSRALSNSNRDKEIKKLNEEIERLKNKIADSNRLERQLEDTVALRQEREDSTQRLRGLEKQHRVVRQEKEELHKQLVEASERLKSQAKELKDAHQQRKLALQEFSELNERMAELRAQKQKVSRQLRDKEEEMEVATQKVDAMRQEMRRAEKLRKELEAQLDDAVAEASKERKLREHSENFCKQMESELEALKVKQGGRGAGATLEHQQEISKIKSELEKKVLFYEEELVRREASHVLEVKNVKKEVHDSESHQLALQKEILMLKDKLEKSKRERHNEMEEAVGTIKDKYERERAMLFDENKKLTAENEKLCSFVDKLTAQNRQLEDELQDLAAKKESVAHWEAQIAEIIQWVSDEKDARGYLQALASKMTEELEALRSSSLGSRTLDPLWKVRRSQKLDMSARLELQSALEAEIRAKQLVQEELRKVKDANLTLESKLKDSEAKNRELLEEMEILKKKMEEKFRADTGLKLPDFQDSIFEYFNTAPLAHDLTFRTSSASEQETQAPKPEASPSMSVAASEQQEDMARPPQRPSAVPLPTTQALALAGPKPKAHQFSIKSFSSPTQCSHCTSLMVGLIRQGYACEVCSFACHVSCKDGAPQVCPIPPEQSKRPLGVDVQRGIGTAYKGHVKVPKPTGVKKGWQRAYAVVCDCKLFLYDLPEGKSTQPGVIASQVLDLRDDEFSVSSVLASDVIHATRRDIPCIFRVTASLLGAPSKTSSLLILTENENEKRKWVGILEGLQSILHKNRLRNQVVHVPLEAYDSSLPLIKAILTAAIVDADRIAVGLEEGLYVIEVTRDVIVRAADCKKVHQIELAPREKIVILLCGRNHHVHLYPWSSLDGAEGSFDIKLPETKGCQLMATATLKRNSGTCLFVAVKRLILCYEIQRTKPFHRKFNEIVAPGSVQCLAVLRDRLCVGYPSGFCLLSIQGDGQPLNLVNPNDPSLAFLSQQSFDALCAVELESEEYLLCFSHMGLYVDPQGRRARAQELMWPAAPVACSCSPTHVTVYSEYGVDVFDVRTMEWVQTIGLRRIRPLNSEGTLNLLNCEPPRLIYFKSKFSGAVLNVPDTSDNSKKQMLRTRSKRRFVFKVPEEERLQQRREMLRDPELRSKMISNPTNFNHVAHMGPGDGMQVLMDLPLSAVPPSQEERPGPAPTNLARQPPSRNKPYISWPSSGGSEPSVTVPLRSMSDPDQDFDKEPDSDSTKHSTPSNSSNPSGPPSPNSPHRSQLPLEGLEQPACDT

Structure (SMILES)	% Ctrl (TIE2) [% Ctrl]	% Ctrl (MKNK2) [% Ctrl]	% Ctrl (p38-gamma) [% Ctrl]	% Ctrl (ACVRL1) [% Ctrl]	% Ctrl (NLK) [% Ctrl]	% Ctrl (AKT1) [% Ctrl]	% Ctrl (DAPK2) [% Ctrl]	% Ctrl (ALK(L1196M)) [% Ctrl]	% Ctrl (TRKB) [% Ctrl]	% Ctrl (GCN2(Kin.Dom.2, S808G)) [% Ctrl]	% Ctrl (ERK8) [% Ctrl]	% Ctrl [1] [% Ctrl]	% Ctrl (PLK3) [% Ctrl]	% Ctrl (FLT3(N841I)) [% Ctrl]	% Ctrl (CDK7) [% Ctrl]	% Ctrl (CAMK1) [% Ctrl]	% Ctrl (ZAP70) [% Ctrl]	% Ctrl (CLK4) [% Ctrl]	% Ctrl (KIT (D816H)) [% Ctrl]	% Ctrl (MAPKAPK5) [% Ctrl]	also measured
CN(C)C(=O)c1ccc(N2CCCN(c3ccnc4sc(C(N)=O)c(N)c34)CC2)cc1 [15u, 3-amino-4-(4-(4-(dimethylcarbamoyl)phenyl)-1,4-diazepan-1-yl)thieno[2,3-b]pyridine-2-carboxamide]	72	83	98	99	98	100	75	96	88	73	98	78	86	90	100	83	95	59	91	100	% Ctrl (SRC): 100 % Ctrl; % Ctrl (PCTK2): 62 % Ctrl; % Ctrl (PDGFRA): 70 % Ctrl; % Ctrl (LIMK2): 91 % Ctrl; % Ctrl (MAST1): 92 % Ctrl; % Ctrl (FGFR2): 99 % Ctrl; % Ctrl (OSR1): 100 % Ctrl; % Ctrl (PIK3C2G): 94 % Ctrl; % Ctrl (EPHA2): 95 % Ctrl; % Ctrl (STK33): 100 % Ctrl; % Ctrl (KIT(L576P)): 96 % Ctrl; % Ctrl (SGK3): 79 % Ctrl; % Ctrl (STK35): 87 % Ctrl; % Ctrl (GRK1): 98 % Ctrl; % Ctrl (MRCKB): 96 % Ctrl
[2H]C([2H])([2H])N(C(=O)c1ccc(N2CCCN(c3ccnc4sc(C(N)=O)c(N)c34)CC2)cc1)C([2H])([2H])[2H] [15u_D6, 3-amino-4-(4-(4-(bis(methyl-d3)carbamoyl)phenyl)-1,4-diazepan-1-yl)thieno[2,3-b]pyridine-2-carboxamide]	100	69	100	100	98	100	85	92	78	88	99	80	90	86	78	95	87	66	66	64	% Ctrl (SRC): 96 % Ctrl; % Ctrl (PCTK2): 100 % Ctrl; % Ctrl (PDGFRA): 65 % Ctrl; % Ctrl (LIMK2): 98 % Ctrl; % Ctrl (MAST1): 92 % Ctrl; % Ctrl (FGFR2): 98 % Ctrl; % Ctrl (OSR1): 88 % Ctrl; % Ctrl (PIK3C2G): 82 % Ctrl; % Ctrl (EPHA2): 100 % Ctrl; % Ctrl (STK33): 100 % Ctrl; % Ctrl (KIT(L576P)): 75 % Ctrl; % Ctrl (SGK3): 80 % Ctrl; % Ctrl (STK35): 93 % Ctrl; % Ctrl (GRK1): 81 % Ctrl; % Ctrl (MRCKB): 100 % Ctrl
